Experimental data reported in US10189795B2, “Aryl amine substituted quinoxaline used as anticancer drugs” (priority 2014, dated 2019).

How the values were obtained:
[1] = tested on: HA22T; assay: MTT cell viability, HA22T; type: cell-based; settings: Homo sapiens, 48 h
Description: (§1) The present invention compared the antitumor activities of an erlotinib derivative of the present invention, TD-52, and erlotinib on HCC cells. The present invention used MTT assay to evaluate cell viability after exposure to TD-52 or erlotinib for 48 h. […] To further evaluate the cell apoptosis induced by the treatments, all four cell lines were treated with TD-52 and erlotinib at the indicated concentration for 24 h and the percentages of sub-G1 cells were determined by flow cytometry (FIG. 1B).

[2] = BA (%), Table 5; settings: in vivo
[3] = tested on: NCI-H226; assay: cell viability of NCI-H226 cells, 1 and 10 uM; type: cell-based; settings: Homo sapiens
[4] = biological target: T1, SET-PP2Ac binding (Homo sapiens, UniProt Q01105); assay: disruption of SET-PP2Ac binding (surface plasmon resonance, co-IP)
T1 construct: His; purchased Genway (SET-His); Abnova (PP2Ac-GST) GWB-ATG319; H00005515
Description: Binding affinities of full-length SET and truncated SET to PP2Ac and the effect of the erlotinib derivatives of the present invention on disrupting SET and PP2Ac were analyzed. PP2Ac-GST recombinant protein was bound in the CMS chip pre-coated with GST-capture antibodies. Sensorgrams were generated by injecting several concentrations of the erlotinib derivatives of the present invention mixed with fixed-concentration of SET recombinant protein, or the mixture of different concentration of truncated SET proteins in a fixed-dose EMQA. PP2Ac-GST recombinant protein used for this experiment was purchased from Abnova (H00005515) and SET-His recombinant protein was obtained from Genway (GWB-ATG319).
EMQA reactivates PP2A by disrupting the binding of SET-PP2Ac. To validate the role of SET, the present invention generated Hep3B cells with ectopic expression of myc-tagged SET by transient transfection. […] With a fixed amount of PP2Ac coated on the CM chip, the present invention tested the effects of a fixed-dose of EMQA on interfering different proportions of full-length and truncated forms of SET proteins in SPR system. […] To validate the findings of this ex vivo system, the present invention generated cells with ectopic overexpression of these two truncated forms of Flag-tagged SET proteins by transient transfections.

[5] = tested on: H2170; assay: cell viability of H2170 cells, 1 and 10 uM; type: cell-based; settings: Homo sapiens, NCI-H2170
[6] = tested on: SW900; assay: cell viability of SW900 cells, 1 and 10 uM; type: cell-based; settings: Homo sapiens
[7] = tested on: HCC cells (HA22T, Hep3B, PLC5, Sk-Hep1); assay: annexin-V/PI double-staining assay of apoptotic and necrotic cell death; type: cell-based; settings: 2 μM or higher doses, 48 h, four HCC cell lines
Description: The numbers of apoptotic cells after treatment with DMSO, sorafenib or the erlotinib derivatives of the present invention were assessed by flow cytometry (sub-G1). Annexin-V/propidium iodidie (PI) double-staining assay was used to determine numbers of both apoptotic and necrotic cells. For above tow assays, HCC cells were harvested after the erlotinib derivatives of the present invention treatment and incubated with PI alone for sub-G1 assay and in combination with annexin-V—FITC. Analysis of cell composition was performed by flow cytometry. The erlotinib derivatives of the present invention-induced apoptotic cell death was assessed by western blot analysis of activated caspases and cleaved PARP, and cell death enzyme-linked immunosorbent assay (ELISA) for cytoplasmic histone-associated DNA fragments (Roche, Indianapolis, Ind., USA). The effect of co-treatment with the erlotinib derivatives of the present invention and z-VAD-fmk, the caspase inhibitor, were assessed by western blot analysis and flow cytometry.
To better characterize the antitumor properties of TD-52, annexin-V/propidium iodide (PI) double-staining assay, western blot analysis, cell cycle analysis and DNA fragmentation assay were performed (FIGS. 1C-1E). At dose increase, the proportion of apoptosis and necrosis of cancer cell ware analyzed by annexin-V—FITC/PI double-staining assay. […]

[8] = tested on: Sk-Hep1; assay: MTT cell viability, Sk-Hep1; type: cell-based; settings: Homo sapiens, 48 h
Description: The Sk-Hep1, PLC/PRF/5 (PLC) and Hep3B cell lines were obtained from American Type Culture Collection (ATCC; Manassas, Va., USA). The Huh-7 HCC cell line was obtained from the Health Science Research Resources Bank (HSRRB; Osaka, Japan; JCRB0403). Cells were maintained in DMEM supplemented with 10% FBS in a 37° C. humidified incubator in an atmosphere of 5% CO^2 in air. Other cell lines, including non-small cell lung cancer cells e.g. H358, H460 and A549 and human squamous cell carcinoma cells e.g. NCI-1703, H2170, H520, SW900 and NCI—H226 all obtained from American Type Culture Collection (Manassas, Va.) were also provided for the assays describes below.
as §1

T1 sequence (Q01105 1-277 isoform Q01105-2): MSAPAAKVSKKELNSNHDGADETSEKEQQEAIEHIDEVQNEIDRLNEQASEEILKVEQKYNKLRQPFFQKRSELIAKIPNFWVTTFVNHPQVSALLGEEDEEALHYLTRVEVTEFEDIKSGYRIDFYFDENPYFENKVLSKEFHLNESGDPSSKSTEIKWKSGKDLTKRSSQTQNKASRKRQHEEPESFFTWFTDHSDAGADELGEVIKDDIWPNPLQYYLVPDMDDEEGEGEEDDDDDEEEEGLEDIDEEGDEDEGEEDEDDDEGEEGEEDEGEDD

C#Cc1cccc(Nc2nc3ccccc3nc2Nc2cccc(C#C)c2)c1 [TD52, N^2,N^3-bis(3-ethynylphenyl)quinoxaline-2,3-diamine]
IC50 [1]: 0.9 µM
BA (%) [2]: 87%
viability at 1 µM ([3]; 1 uM): 79.5 ± 6.9%
viability at 10 µM ([3]; 10 uM): 5.3 ± 0.1%
minimal concentration to disrupt SET-PP2Ac binding [4]: 100 to 200 nM
viability at 1 µM ([5]; 1 uM): 100 ± 3.21%
viability at 10 µM ([5]; 10 uM): 7.84 ± 9.49%
viability at 1 µM ([6]; 1 uM): 107 ± 13.1%
viability at 10 µM ([6]; 10 uM): 77.9 ± 11.3%
extents of cancer cell death, included apoptotic and necrotic death [7]: ≥ 50%
IC50 [8]: 1.2 µM
